Drawing on patent publication US8143278B2, “Organic compounds” (Novartis AG, priority 2006, dated 2012), this text covers IC50 and inhibition for 5 molecules.

SMILES strings stand for the structures. pIC50: −log10 of the molar value.

Experiment [1] deals with T1, aldosterone synthase (Homo sapiens, UniProt P19099).
T1 construct: host or cells: NCI-H295R human adrenocortical carcinoma cells
T1 sequence (P19099 25-503): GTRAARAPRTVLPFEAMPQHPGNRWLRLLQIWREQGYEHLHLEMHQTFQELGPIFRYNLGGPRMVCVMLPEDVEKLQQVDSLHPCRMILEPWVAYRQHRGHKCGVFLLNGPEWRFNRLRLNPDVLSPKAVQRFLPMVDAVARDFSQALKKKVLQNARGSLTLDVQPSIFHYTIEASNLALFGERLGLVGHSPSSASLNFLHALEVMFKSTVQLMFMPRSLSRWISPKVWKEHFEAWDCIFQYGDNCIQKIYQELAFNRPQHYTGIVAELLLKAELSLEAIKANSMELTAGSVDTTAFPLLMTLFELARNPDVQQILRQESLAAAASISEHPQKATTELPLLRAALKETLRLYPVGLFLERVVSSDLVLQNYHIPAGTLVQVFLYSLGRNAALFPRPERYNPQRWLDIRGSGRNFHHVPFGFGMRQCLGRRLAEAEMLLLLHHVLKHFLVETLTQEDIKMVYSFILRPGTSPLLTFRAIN
Briefly: in vitro aldosterone synthase inhibition (ASI cell), aldosterone production in NCI-H295R cells. To be noted: 1 μM Ang II, 24 hr. It counts as cell-based. From the text: Human adrenocortical carcinoma NCI-H295R cell line is obtained from American Type Culture Collection (Manassas, Va.). Insulin/transferrin/selenium (ITS)-A supplement (100×), DMEM/F-12, antibiotic/antimycotic (100×), and fetal calf serum (FCS) are purchased from Gibco (Grand Island, N.Y.). Anti-mouse PVT scintillation proximity assay (SPA) beads and NBS 96-well plates are obtained from Amersham (Piscataway, N.J.) and Corning (Acton, Mass.), respectively. Solid black 96-well flat bottom plates are purchased from Costar (Corning, N.Y.). Aldosterone and angiotensin (Ang II) are purchased from Sigma (St. Louis, Mo.). D[1,2,6,7-^3H(N)]aldosterone was acquired from PerkinElmer (Boston, Mass.). Nu-serum was a product of BD Biosciences (Franklin Lakes, N.J.). The NADPH regenerating system, dibenzylfluorescein (DBF), and human aromatase Supersomes® are obtained from Gentest (Woburn, Mass.).
For in vitro measurement of aldosterone activity, human adrenocortical carcinoma NCI-H295R cells are seeded in NBS 96-well plates at a density of 25,000 cells/well in 100 μl of a growth medium containing DMEM/F12 supplemented with 10% FCS, 2.5% Nu-serum, 1 μg ITS/ml, and 1× antibiotic/antimycotic. The medium is changed after culturing for 3 days at 37° C. under an atmosphere of 5% CO2/95% air. On the following day, cells are rinsed with 100 μl of DMEM/F12 and incubated with 100 μl of treatment medium containing 1 μM Ang II and a compound at different concentrations in quadruplicate wells at 37° C. for 24 hr. At the end of incubation, 50 μl of medium is withdrawn from each well for measurement of aldosterone production by an RIA using mouse anti-aldosterone monoclonal antibodies.
Measurement of aldosterone activity can also be performed using a 96-well plate format. Each test sample is incubated with 0.02 μCi of D-[1,2,6,7-^3H(N)]aldosterone and 0.3 μg of anti-aldosterone antibody in phosphate-buffered saline (PBS) containing 0.1% Triton X-100, 0.1% bovine serum albumin, and 12%, glycerol in a total volume of 200 μl at room temperature for 1 hr. Anti-mouse PVT SPA beads (50 μl) are then added to each well and incubated overnight at room temperature prior to counting in a Microbeta plate counter. The amount of aldosterone in each sample is calculated by comparing with a standard curve generated using known quantities of the hormone.
Full concentration-response curves of the test compound are performed at least 3 times. The IC50 values are derived using a non-linear least squares curve-fitting program from Microsoft XLfit.

For experiment [2], the target named is T2, CYP11B1 (Homo sapiens, UniProt P15538).
T2 construct: Thus, the NCI-H295R cells have CYP11B1 (steroid 11 p-hydroxylase); host or cells: NCI-H295R human adrenocortical carcinoma cells
T2 sequence (P15538 25-503): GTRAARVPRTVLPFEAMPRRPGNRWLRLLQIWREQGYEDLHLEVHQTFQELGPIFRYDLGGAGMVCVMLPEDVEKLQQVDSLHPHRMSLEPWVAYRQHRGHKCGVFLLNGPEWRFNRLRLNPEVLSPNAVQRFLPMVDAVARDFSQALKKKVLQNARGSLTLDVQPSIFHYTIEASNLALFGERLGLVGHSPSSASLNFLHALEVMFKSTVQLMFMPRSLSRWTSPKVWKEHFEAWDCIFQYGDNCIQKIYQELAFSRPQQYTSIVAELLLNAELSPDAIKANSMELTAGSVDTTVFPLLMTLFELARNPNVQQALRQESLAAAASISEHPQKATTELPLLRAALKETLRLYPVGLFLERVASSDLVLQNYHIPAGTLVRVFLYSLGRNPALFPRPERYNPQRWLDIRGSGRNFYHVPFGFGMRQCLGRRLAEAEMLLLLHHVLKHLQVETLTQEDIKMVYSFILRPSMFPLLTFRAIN
Briefly: in vitro CYP11B1 inhibition in NCI-H295R cells. Type of experiment: cell-based. To be noted: read-out: % inhibition CYP11B1 @ 10 nM. An excerpt: The cell line NCI-H295R was originally isolated from an adrenocortical carcinoma and has been characterized in the literature through the stimulable secretion of steroid hormones and the presence of the enzymes essential for steroidogenesis. Thus, the NCI-H295R cells have CYP11B1 (steroid 11 p-hydroxylase). The cells show the physiological property of zonally undifferentiated human foetal adrenocortical cells which, however, have the capacity to produce the steroid hormones which are formed in the three, phenotypically distinguishable zones in the adult adrenal cortex. […]
The excretion of aldosterone, cortisol, corticosterone and estradiol/estrone into the culture medium can be detected and quantified by commercially available, specific monoclonal antibodies in radioimmunoassays in accordance with the manufacturer's instructions.
Inhibition of the release of certain steroids can be used as a measure of the respective enzyme inhibition by the added test compounds. The dose-dependent inhibition of enzymic activity by a compound is calculated by means of an inhibition plot which is characterized by an IC50. […]

As a reminder, the pIC50 is the negative decadic logarithm of the IC50, by convention in mol/L. What is called inhibition is the relative decrease from the control value, in per cent. For the molecule `COc1ccc2c(c1)NC(=O)C(C)(C)C2n1ccnc1` (racemic) [Compound 6, 7-methoxy-4-Imidazol-1-yl-3,3-dimethyl-3,4-dihydro-1H-quinolin-2-one], the pIC50 in experiment [1] was 7.47. In addition, the inhibition at 0.01 µM in experiment [2] was 84%.

Molecule `CN1C(=O)C(C)(C)C(n2ccnc2)c2ccccc21` (racemic) [Compound 7, 4-Imidazol-1-yl-1,3,3-trimethyl-3,4-dihydro-1H-quinolin-2-one] gave a pIC50 in experiment [1] of 8.00. In addition, the inhibition at 0.01 µM in experiment [2] is 100%.

In turn, `CC1(C)C(=O)Nc2cccc(Cl)c2C1n1cncc1CO` (racemic) [Compound 8, 5-Chloro-4-(5-hydroxymethyl-imidazol-1-yl)-3,3-dimethyl-3,4-dihydro-1H-quinolin-2-one] gave a pIC50 in experiment [1] of 8.15.

`Cc1cncn1C1c2ccc(F)cc2NC(=O)C1(C)C` (racemic) [Compound 9, 7-Fluoro-3,3-dimethyl-4-(5-methyl-imidazol-1-yl)-3,4-dihydro-1H-quinolin-2-one]: the pIC50 in experiment [1] is 7.92.

In experiment [1], `Cc1noc(-c2cncn2C2c3ccccc3NC(=O)C2(C)C)n1` (racemic) [Compound 10, 3,3-Dimethyl-4-[5-(3-methyl-[1,2,4]oxadiazol-5-yl)-imidazol-1-yl]-3,4-dihydro-1H-quinolin-2-one] showed a pIC50 of 6.86.
